Format in all cases: cell-based
In data set [1] the test system is HIV-1 virus strain JR-FL. As to the kind of experiment: Inhibition of infection of primary HIV-1 isolate JR-FL in PBMCs (p24 antigen ELISA). The settings on record: Human immunodeficiency virus 1, 192 h; PBMC infected with virus JR-FL, p24 production at day 8. An excerpt:
(§1) Monocyte/macrophages represent a major reservoir of HIV-1 in the infected human host. See L. Epstein et al., AIDS Res. 14, 447 (1984). However, these cells tend to be resistant to dideoxynucleoside prodrugs due to low levels of kinases needed to activate the prodrugs. See C. Pemo et al., J. Exp. Med. 168, 1111 (1984). To test the compounds described herein in these cells, PBMC cells infected for 7 days with two different virus strains (20678 and JR-FL) and under PHA stimulation for 4 days were treated with AZT, FOZ ISO 850, FOZ ISO 851, and FOZ MIX Na.
(§2) PBMC's were prepared as follows: 50 ml of whole human blood was centrifuged at 1000 g for 15 min, supernatant (plasma) removed, and cells resuspended in 80 ml PBS. 20 ml resuspended blood was then layered onto 25 ml Ficoll-Paque Plus (GE Healthcare, Uppsala Sweden), and centrifuged at 400 g for 30 min. The PBMC layer at the interface was collected, washed two times with 20 ml PBS, and resuspended in 20 ml RPMI/10% FBS.
(§3) Day 5-Stimulation of PBMC: PBMCs were grown in 50 ml of stimulation medium (RPMI, 15% FBS, 5 units/ml of IL-2, and 6 ug/ml of PHA) for 5 days.
(§4) Day 1-Infection of PBMC: PBMCs were counted with a hemacytometer. Stimulation medium was removed by centrifugation at RT, 1,500 rpm/5′ and cells resuspended in growth medium (RPMI, 15% of FBS, 10 units/ml of IL-2). PBMCs were infected with JR-FL or 20678 as follows: for one 96-well plate, 20 millions cells were infected with 1 ml of each virus (use 10 ul of virus and 200,000 cell per well) in a 4.5 ml-volume in a 50-ml conical tube. Cells were incubated for 3 hrs at 37 °C. with frequent shaking. Aliqouts of 50 ul of a 4× solution of the compounds to be tested were added to the 96-well plates. After 3 hr of incubation, infected cells were washed two times with PBS and one time with culture medium by spinning down the cells at 1500 rpm for 5 minutes at room temperature. After the last wash cells were resuspended in 15 ml of growth medium. 150 ul of cell suspension were delivered into each well. Cells were incubated for 7 days at 37 °C.
(§5) Day 5-Medium change: Cells were resuspended by pipetting and 100 ul of medium was removed. 100 ul of fresh medium was added with 1× compound. Cells were incubated for 3 more days at 37° C.
(§6) Day 8-p24 assay: At day 8 the p24 production was measured using the HIV-1 p24 Antigen ELISA (Zeptometrix) according to manufacturer instructions.
For orientation: An ELISA detects its analyte on a solid surface through an enzyme-linked reagent.

Data set [2] concerns HIV-1 virus strain 20678. Nature of the data set: Inhibition of infection of primary HIV-1 isolate 20678 in PBMCs (p24 antigen ELISA). The settings on record: for EC50: Human immunodeficiency virus 1, 192 h, PBMC infected with virus 20678, p24 production at day 8; for Selectivity Index: GI50 (Diff.CD34+) divided by EC50 (PBMC), values fit AVG GI50 / EC50 of virus 20678.
Description: as §1, §2, §3, §4, §5, §6

Data set [3] in a line: Inhibition of cell growth (GI50) in Diff.CD34+ cells, 7-d. The settings on record: Diff.CD34+ cells.
Data set [4] concerns Diff.CD34+. Described as above.
Setting [5] is: 7-d, experiment of Aug. 6, 2007, concentration required for 50% inhibition of cell growth, read-out: GI50 (μM) Aug. 6, 2007 7-d.
The mark [6] stands for this setting: 7-d, experiment of Aug. 13 2007, concentration required for 50% inhibition of cell growth, read-out: GI50 (μM Aug. 13 2007 7-d).
Where [7] appears, read: average of the two 7-d experiments, read-out: AVG GI50.

Where a name gives a salt, the structure may show the parent alone. Read-outs that look alike come from different tables or passages of the source.

As usually defined, the EC50 is the concentration that produces a half-maximal response. A higher EC50 goes with lower potency in that assay. Usually GI50 stands for the concentration giving 50% growth inhibition. Regarding `CCCCCCCCCCCCSC[C@H](COP(=O)(O)OC[C@H]1O[C@@H](n2cc(C)c(=O)[nH]c2=O)C[C@@H]1N=[N+]=[N-])OCCCCCCCCCC` (mixture of isomers) [FOZ MIX Na, Phosphoric acid (2S,3S,5R)-3-azido-5-(5-methyl-2,4-dioxo-3,4-dihydro-2H-pyrimidin-1-yl)-tetrahydro-furan-2-ylmethyl ester (S)-2-decyloxy-3-dodecylsulfanyl-propyl ester sodium salt], the EC50 in data set [1] was determined as 1140 nM; in data set [2], 1410 nM. The GI50 at 7 d in data set [3] (setting [5]) came out at 1.5 µM; in data set [3] (setting [6]), 2.2 µM; in data set [3] (setting [7]) it was 1.83 µM.
In the case of `Cc1cn([C@H]2C[C@H](N=[N+]=[N-])[C@@H](CO)O2)c(=O)[nH]c1=O` [AZT, 3′-azido-3′-deoxythymidine, reference compound], the figures for the EC50 in data set [1] and in data set [2] were 89.8 nM and 76 nM, respectively. Also, the “Selectivity Index” value in data set [2] is reported as 1.8. Besides, the figures for the GI50 at 7 d in data set [3] (setting [5]), in data set [3] (setting [6]) and in data set [3] (setting [7]) were 0.07 µM, 0.2 µM and 0.14 µM, respectively.
Regarding `CCCCCCCCCCCCSCC(COP(=O)(O)OC[C@H]1O[C@@H](n2cc(C)c(=O)[nH]c2=O)C[C@@H]1N=[N+]=[N-])OCCCCCCCCCC` (stereo partly drawn) [FOZ ISO 850 Na, Phosphoric Acid (2S,3S,5R)-3-azido-5-(5-methyl-2,4-dioxo-3,4-dihydro-2H-pyrimidin-1-yl)-tetrahydro-furan-2-ylmethyl ester 2-decyloxy-3-dodecylsulfanyl-propyl ester], the “Selectivity Index” value in data set [2] amounted to 14.3. The GI50 at 7 d in data set [3] (setting [5]) and in data set [3] (setting [7]) was 4 µM each time. In addition, the 50% growth inhibitory concentration (GI50) in data set [4] (setting [6]) was > 10 µM.
Regarding `CCCCCCCCCCCCSCC(COP(=O)(O)OC[C@H]1O[C@@H](n2cc(C)c(=O)[nH]c2=O)C[C@@H]1N=[N+]=[N-])OCCCCCCCCCC` (stereo partly drawn) [FOZ ISO 850, Phosphoric Acid (2S,3S,5R)-3-azido-5-(5-methyl-2,4-dioxo-3,4-dihydro-2H-pyrimidin-1-yl)-tetrahydro-furan-2-ylmethyl ester 2-decyloxy-3-dodecylsulfanyl-propyl ester], the values for the EC50 in data set [1] and in data set [2] were 474 nM and 279 nM, respectively. In addition, the “Selectivity Index” value in data set [2] was determined as 11.06. Besides, the figures for the GI50 in data set [4] (setting [5]), in data set [4] (setting [6]) and in data set [4] (setting [7]) were 2.2 µM, 4 µM and 3.09 µM, respectively.
Turning to `CCCCCCCCCCCCSC[C@@H](COP(=O)(O)OC[C@H]1O[C@@H](n2cc(C)c(=O)[nH]c2=O)C[C@@H]1N=[N+]=[N-])OCCCCCCCCCC` [FOZ ISO 851 Na, Phosphoric Acid (2S,3S,5R)-3-azido-5-(5-methyl-2,4-dioxo-3,4-dihydro-2H-pyrimidin-1-yl)-tetrahydro-furan-2-ylmethyl ester (R)-2-decyloxy-3-dodecylsulfanyl-propyl ester], in data set [2], the “Selectivity Index” value was 4.5. The GI50 was 2.2 µM in data set [4] (setting [5]), > 10 µM in data set [4] (setting [6]) and 2.2 µM in data set [4] (setting [7]).
In the case of `CCCCCCCCCCCCSC[C@@H](COP(=O)(O)OC[C@H]1O[C@@H](n2cc(C)c(=O)[nH]c2=O)C[C@@H]1N=[N+]=[N-])OCCCCCCCCCC` [FOZ ISO 851, Phosphoric Acid (2S,3S,5R)-3-azido-5-(5-methyl-2,4-dioxo-3,4-dihydro-2H-pyrimidin-1-yl)-tetrahydro-furan-2-ylmethyl ester (R)-2-decyloxy-3-dodecylsulfanyl-propyl ester], the EC50 in data set [1] came out at 504 nM; in data set [2] it was 294 nM. For the same compound, the “Selectivity Index” value in data set [2] stood at 3.5. Moreover, the GI50 in data set [4] (setting [5]) was found to be 0.85 µM; in data set [4] (setting [6]), 1.2 µM; in data set [4] (setting [7]), 1.03 µM.

The values above are taken from patent US20080249066A1, “ANTIVIRAL COMPOUNDS AND COMPOSITIONS” (ARDEA BIOSCIENCES, INC., priority 2007, published 2008).
